Experimental data taken from patent US20180298024A1, “CORTISTATIN ANALOGS AND USES THEREOF” (President and Fellows of Harvard College, priority 2015, published 2018).
“And” between values parts separate entries of the source, which are not always exact repeats. Equal values may be shown once. One block for each compound: values may come before it.

Assays:
Tachykinin NK1 = biological target: T1, Tachykinin NK1 (Homo sapiens, UniProt P25103); assay: Panlab assay, Tachykinin NK1; type: binding
T1 construct: Eurofins Panlabs
Protocol: (§1) Compounds A, B, C, and D were tested in Panlab assays to evaluate potential off-target activity using standard assay kits. Methods employed in these studies have been adapted from the scientific literature to maximize reliability and reproducibility. Reference standards were run as an integral part of each assay to ensure the validity of the results obtained.
(§2) IC50 values were determined by a non-linear, least squares regression analysis using MathIQ™ (ID Business Solutions Ltd., UK). Where inhibition constants (Ki) are presented, the Ki values were calculated using the equation of Cheng and Prusoff (Cheng, Y., Prusoff, W. H., Biochem. Pharmacol. 22:3099-3108, 1973) using the observed IC50 of the tested compound, the concentration of radioligand employed in the assay, and the historical values for the KD of the ligand (obtained experimentally at Eurofins Panlabs, Inc.). Where presented, the Hill coefficient (nH), defining the slope of the competitive binding curve, was calculated using MathIQ™.

[1] = TurboSol solubility evaluation in physiological saline; type: physicochemical; conditions: HB-PS+0.3% DMSO
[2] = biological target: hERG (human ether-à-go-go-related gene) potassium channel (Homo sapiens, UniProt Q12809); assay: in vitro
Protocol: (§3) The in vitro effects of compounds A, B, C, D, E, and F on the hERG (human ether-à-go-go-related gene) potassium channel current (a surrogate for IKr, the rapidly activating, delayed rectifier cardiac potassium current) expressed in mammalian cells were evaluated at room temperature using the QPatch HT (Sophion Bioscience A/S, Denmark), an automatic parallel patch clamp system. The test articles were evaluated at 1 μM, 3 μM, […] and 30 μM. Each test article concentration was tested in at least three cells. The duration of exposure to each test article concentration was a minimum of 3 minutes.

hERG potassium channel = hERG potassium channel (Homo sapiens, UniProt Q12809); assay: in vitro; conditions: human
Protocol: as §3

[3] = test system: Human AML cell line MV4;11; assay: MV4;11 disseminated leukemia model (bioluminescence); type: in vivo, NSG mice
Protocol: The in vivo anti-leukemic activity of Compounds A, B, C, D, and F was tested at the indicated doses and treatment schedules. The doses were chosen based on the compounds tolerability profile (i.e. CA was dosed at 0.16 mg/kg because higher doses caused weight loss or other tolerability issues outlined in Example 6). Human AML cell line MV4;11 expressing mCherry and luciferase were injected into NSG mice. Upon measurement of leukemia cell engraftment, treatment was initiated. Body weight and bioluminescence were measured. It has previously been shown (Shair, Nature 2015) that bioluminescence corresponds to leukemia burden. […] Moreover there was no appreciable advantage between IV or PO dosing observed.

[4] = Pharmacokinetic profile in mice (plasma, LC-MS/MS); conditions: male, CD-1, mouse, plasma, po, 1 mg/kg
Protocol: Formulation correction for salt content was not required for this study. Materials were vortexed and sonicated at room temperature following addition of vehicle. The solutions were maintained at ambient temperature stirring in the dark for at least 30 minutes prior to dose administration. The formulations were then vortexed and sonicated briefly to help ensure solubility.
Mice were selected from the Testing Facility's rodent colony. The animals were enrolled in the study based on acceptable health as determined by Testing Facility personnel on the day of test article administration. Animals were held in environmental acclimation for at least 48 hours (±6 hours) prior to dosing. Animals were maintained at temperatures between 16-26° C. (62-78° F.) with the humidity range between 30-70%. Animals in all groups were fasted overnight and food was returned 4 hours following dosing. Water was provided ad libitum throughout the study.
Whole blood samples for plasma were either collected from each animal by either direct vein puncture of the submandibular vein (survival blood collection) or by cardiac puncture following euthanasia with CO2 (terminal blood collection). […] Following collection, whole blood was placed into a tube containing K2EDTA and immediately placed on wet ice until processed for plasma. Whole blood samples were centrifuged at 2200×g for 10 minutes in a refrigerated centrifuge (5±3° C.) to isolate plasma. The samples were transferred to individual polypropylene containers and immediately placed on dry ice before storage at −70±10° C. until analysis. Plasma collected from undosed spare animals was pooled and analyzed as well.
Once collected the mouse plasma studies were quantitated using LCMS/MS spectroscopy to determine the concentration of compound. […] Eight calibration standards containing the analyte and internal standard imipramine were prepared and analyzed at the beginning and at the end of the sequence. A calibration curve was generated and sample concentrations calculated using the Quantitation software MassHunter.

hNav1.5 (INa) = biological target: T2, hNav1.5 (INa) (Homo sapiens, UniProt Q14524); assay: INa current, PatchXpress 7000A planar voltage clamp; type: cell-based
T2 construct: expressed in transfected cells; host or cells: CHO or HEK293 cells
Protocol: (§4) The objective of this study was to evaluate the in vitro effects of Compound F on three cardiac ion channel currents: IKr, the rapidly activating, delayed rectifier potassium current through hERG channel encoded by human ether-à-go-go-related gene; IKs, the slowly activating, delayed rectifier cardiac potassium channel current encoded by hKCNQ1/hKCNE1; and INa, the human cardiac Na+ channel current encoded by hNav1.5 in CHO or HEK293 cells (Table 7). This functional assay was conducted using higher throughput planar voltage-clamp technology PatchXpress 7000A.
(§5) Signal amplitudes were quantified at steady state during control (vehicle) and in the presence of increasing concentrations of the test compound. Concentration-dependent changes of signal in response to compound were expressed as percent block relative to control (pre-drug/trigger) and are reported as the mean±SEM (standard error) of the indicated number (N) of tested cells/wells. IC50 values were determined where applicable by fitting the averaged concentration-response data (mean±SEM) with a Hill equation.

hERG = hERG (Homo sapiens, UniProt Q12809); assay: hERG (IKr) current, PatchXpress 7000A planar voltage clamp; type: cell-based; design: expressed in transfected cells; host or cells: CHO or HEK293 cells
Protocol: as §4, §5

hERG channel (IKr) = biological target: T3, hERG channel (IKr) (Homo sapiens, UniProt Q12809); assay: as above; type: cell-based; conditions: human, CHO or HEK293 cells expressing the hERG channel; PatchXpress functional voltage clamp
T3 construct: expressed in transfected cells; host or cells: CHO or HEK293 cells
Protocol: as §4, §5

[5] = Tolerability study of Compound F (body weight); type: in vivo, mice
Protocol: Twenty seven mice were used for the tolerability study of Compound F. Mice were randomly assigned to various treatment groups with n=3 mice/group. In the low dose group of 0.3 mg/kg Compound F administered IP, mice were re-challenged after 8 days of drug holiday with a higher dose of 20 mg/kg Compound F, IP. All mice were treated for 7 days unless as indicated below.
Mice were monitored clinically for signs of morbidity and for body weights daily. Mice showing signs of morbidity were euthanized as per study guidelines.

hKCNQ1/hKCNE1 (IKs) = biological target: T4, hKCNQ1/hKCNE1 (IKs) (Homo sapiens, UniProt P51787); assay: IKs current, PatchXpress 7000A planar voltage clamp; type: cell-based
T4 construct: expressed in transfected cells; host or cells: CHO or HEK293 cells
Protocol: as §4, §5

off-targets (Panlabs) = assay: Panlab off-target assay panel; type: binding; conditions: 10 μM
Protocol: as §1, §2

SKNO-1 = assay: Half-maximal growth inhibition (GI50), SKNO-1; type: cell-based; conditions: Homo sapiens, 240 h, AML, M2, RUNX1-RUNX1T1, read-out: GI50 (nM), day 10
Protocol: (§6) Compounds A, B, C, D, and F were tested against various cell lines to probe their broad utility against cancer. Cortistatin A (CA) was also tested against the cell lines in a head to head fashion.

MOLM-14 = assay: Half-maximal growth inhibition (GI50), MOLM-14; type: cell-based; conditions: Homo sapiens, 240 h, AML, M5, MLL-AF9, read-out: GI50 (nM), day 10
Protocol: as §6

MV4; 11 = assay: Half-maximal growth inhibition (GI50), MV4; 11; type: cell-based; conditions: Homo sapiens, 240 h, AML, M5, MLL-AF4, read-out: GI50 (nM), day 10
Protocol: as §6

[6] = Individual Data Points (% Inhibition), hERG

T1 sequence (P25103 whole entry): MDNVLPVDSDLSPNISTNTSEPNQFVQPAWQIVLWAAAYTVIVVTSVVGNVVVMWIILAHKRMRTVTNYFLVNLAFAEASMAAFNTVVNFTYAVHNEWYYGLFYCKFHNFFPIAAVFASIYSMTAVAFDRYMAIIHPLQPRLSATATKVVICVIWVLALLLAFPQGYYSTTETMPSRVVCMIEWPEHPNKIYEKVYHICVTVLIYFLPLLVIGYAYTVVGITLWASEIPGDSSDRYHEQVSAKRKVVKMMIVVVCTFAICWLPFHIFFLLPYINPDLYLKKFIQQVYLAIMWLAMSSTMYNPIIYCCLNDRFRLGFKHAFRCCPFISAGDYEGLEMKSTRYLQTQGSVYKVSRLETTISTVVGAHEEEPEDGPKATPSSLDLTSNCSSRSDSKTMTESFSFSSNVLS
T2 sequence (Q14524 whole entry): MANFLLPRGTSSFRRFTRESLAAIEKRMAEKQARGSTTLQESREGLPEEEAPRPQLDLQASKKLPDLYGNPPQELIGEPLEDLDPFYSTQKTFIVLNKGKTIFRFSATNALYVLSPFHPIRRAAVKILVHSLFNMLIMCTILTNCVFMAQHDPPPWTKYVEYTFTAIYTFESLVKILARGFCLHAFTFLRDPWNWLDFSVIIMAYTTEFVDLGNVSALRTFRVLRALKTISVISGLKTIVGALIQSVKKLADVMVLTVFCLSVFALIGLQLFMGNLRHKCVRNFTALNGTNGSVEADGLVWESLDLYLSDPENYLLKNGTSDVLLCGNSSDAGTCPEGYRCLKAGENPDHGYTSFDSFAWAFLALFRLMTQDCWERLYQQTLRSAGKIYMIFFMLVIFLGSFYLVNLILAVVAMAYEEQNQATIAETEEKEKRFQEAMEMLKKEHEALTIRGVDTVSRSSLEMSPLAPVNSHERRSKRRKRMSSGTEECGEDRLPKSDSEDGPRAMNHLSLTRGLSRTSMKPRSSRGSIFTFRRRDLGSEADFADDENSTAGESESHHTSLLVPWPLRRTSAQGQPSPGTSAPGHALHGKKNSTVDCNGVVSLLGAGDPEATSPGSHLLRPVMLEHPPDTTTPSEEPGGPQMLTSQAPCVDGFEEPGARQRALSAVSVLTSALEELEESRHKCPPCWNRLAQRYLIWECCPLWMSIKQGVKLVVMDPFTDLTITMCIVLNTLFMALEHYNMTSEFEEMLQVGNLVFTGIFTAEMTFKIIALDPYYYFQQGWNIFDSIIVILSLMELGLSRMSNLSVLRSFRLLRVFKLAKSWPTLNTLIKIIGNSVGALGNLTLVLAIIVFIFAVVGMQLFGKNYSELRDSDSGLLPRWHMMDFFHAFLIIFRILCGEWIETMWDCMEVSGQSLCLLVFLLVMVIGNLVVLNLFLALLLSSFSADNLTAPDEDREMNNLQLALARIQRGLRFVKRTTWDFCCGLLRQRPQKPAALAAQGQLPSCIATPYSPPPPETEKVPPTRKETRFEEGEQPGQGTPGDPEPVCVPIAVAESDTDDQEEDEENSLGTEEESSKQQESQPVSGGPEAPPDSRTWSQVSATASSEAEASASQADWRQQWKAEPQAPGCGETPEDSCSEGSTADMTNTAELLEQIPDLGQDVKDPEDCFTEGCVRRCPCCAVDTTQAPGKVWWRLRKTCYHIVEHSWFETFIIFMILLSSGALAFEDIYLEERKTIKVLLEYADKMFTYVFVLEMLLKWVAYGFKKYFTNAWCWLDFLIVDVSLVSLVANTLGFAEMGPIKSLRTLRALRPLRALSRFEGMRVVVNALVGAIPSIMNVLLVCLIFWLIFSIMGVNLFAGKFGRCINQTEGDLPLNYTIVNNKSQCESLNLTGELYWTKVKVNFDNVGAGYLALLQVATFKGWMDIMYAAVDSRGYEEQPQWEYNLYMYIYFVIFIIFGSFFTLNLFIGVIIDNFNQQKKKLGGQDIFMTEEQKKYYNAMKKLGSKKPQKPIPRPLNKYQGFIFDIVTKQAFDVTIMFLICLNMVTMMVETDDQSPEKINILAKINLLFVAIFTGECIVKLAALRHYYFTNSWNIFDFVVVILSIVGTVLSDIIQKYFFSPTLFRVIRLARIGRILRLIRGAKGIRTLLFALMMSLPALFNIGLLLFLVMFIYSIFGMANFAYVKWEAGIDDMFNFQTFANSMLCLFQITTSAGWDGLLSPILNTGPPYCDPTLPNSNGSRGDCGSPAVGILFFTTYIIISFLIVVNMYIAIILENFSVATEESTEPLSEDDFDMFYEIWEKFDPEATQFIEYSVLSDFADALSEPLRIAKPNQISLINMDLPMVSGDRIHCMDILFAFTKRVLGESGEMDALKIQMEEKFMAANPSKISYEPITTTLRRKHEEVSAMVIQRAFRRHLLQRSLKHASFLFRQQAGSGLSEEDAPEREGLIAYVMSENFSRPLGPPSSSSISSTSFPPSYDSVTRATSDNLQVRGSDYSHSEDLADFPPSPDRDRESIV
hERG, sequence (Q12809 whole entry): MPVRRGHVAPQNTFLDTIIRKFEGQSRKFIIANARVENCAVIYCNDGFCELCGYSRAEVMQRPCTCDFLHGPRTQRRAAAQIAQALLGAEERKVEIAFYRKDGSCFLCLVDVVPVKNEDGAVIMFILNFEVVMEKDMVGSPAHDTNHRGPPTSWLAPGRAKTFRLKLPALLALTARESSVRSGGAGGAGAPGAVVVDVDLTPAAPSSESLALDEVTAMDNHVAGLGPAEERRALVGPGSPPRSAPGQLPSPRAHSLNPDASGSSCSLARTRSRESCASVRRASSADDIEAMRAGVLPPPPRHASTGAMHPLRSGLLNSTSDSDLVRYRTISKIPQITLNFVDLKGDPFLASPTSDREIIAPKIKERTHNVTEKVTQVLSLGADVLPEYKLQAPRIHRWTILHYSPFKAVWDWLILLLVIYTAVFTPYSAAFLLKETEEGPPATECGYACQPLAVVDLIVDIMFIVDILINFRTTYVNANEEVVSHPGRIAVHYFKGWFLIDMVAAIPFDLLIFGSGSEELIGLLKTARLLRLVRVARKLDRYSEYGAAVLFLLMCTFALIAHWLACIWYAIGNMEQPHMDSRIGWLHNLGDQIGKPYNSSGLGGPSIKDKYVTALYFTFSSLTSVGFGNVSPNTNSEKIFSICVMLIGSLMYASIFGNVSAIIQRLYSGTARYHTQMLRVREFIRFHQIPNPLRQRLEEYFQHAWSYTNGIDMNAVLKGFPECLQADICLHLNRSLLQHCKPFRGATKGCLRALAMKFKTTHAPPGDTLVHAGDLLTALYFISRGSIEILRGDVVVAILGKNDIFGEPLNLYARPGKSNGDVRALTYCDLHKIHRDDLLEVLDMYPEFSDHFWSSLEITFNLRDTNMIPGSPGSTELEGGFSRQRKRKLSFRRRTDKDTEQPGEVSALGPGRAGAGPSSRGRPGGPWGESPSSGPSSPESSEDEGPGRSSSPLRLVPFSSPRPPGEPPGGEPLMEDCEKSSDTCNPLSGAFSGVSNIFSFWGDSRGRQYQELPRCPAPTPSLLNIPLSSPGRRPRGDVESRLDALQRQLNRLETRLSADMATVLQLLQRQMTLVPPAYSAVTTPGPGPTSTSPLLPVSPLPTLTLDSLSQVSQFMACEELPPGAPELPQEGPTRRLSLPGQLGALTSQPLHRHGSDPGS
hERG potassium channel, sequence (Q12809 whole entry): as above

SMILES: Ic1ccccc1CN[C@@H]1C2CCN(CC2)[C@@H]1C(c1ccccc1)c1ccccc1 (racemic) [L-703,606, reference compound]
- nH (Hill coefficient), Tachykinin NK1 (Tachykinin NK1): 0.88
- IC50 (Tachykinin NK1; reference standard): 3.6 nM
- Ki (Tachykinin NK1; reference standard, Cheng and Prusoff): 2.6 nM

- Average LSU (×1000) ([1]; 1 μM): 3.7 LSU (×1000)
- Average LSU (×1000) ([1]; 3 μM): 4.7 LSU (×1000)
- Average LSU (×1000) ([1]; 10 μM): 6.4 LSU (×1000)
- Average LSU (×1000) ([1]; 30 μM): 8.7 LSU (×1000)
- solubility in the TurboSol assay [1]: slightly insoluble at 30 μM
SMILES: C[C@]12CC=C3C=C4CC[C@@H](N5CCCC5)C[C@]45CCC3(O5)[C@@H]1CC[C@@H]2c1ccc2ccncc2c1 [Compound E]
- activity in the hERG assay [2]: sub-micromolar activity
- IC50 ([2]; hERG IC50, QPatch HT, room temperature): 562 nM
- inhibition at 1 µM (hERG potassium channel; [6]): 65.6%
- inhibition at 3 µM (hERG potassium channel; [6]): 83.4%
- inhibition at 10 µM (hERG potassium channel; [6]): 93.8%
- inhibition at 30 µM (hERG potassium channel; [6]): 97.7%
- inhibition at 1 µM (hERG potassium channel; Mean % hERG Inhibition): 67.2%
- inhibition at 3 µM (hERG potassium channel; Mean % hERG Inhibition): 79.2%
- inhibition at 10 µM (hERG potassium channel; Mean % hERG Inhibition): 93%
- inhibition at 30 µM (hERG potassium channel; Mean % hERG Inhibition): 98.8%

- AUC(0-inf) [4]: 524 ng·h/mL
- IC50 (hKCNQ1/hKCNE1 (IKs)): 17000 nM
- IKS % Block Mean ± SEM (n) (hKCNQ1/hKCNE1 (IKs); 10 μM): 34 ± 7 (5) %
- IKS % Block Mean ± SEM (n) (hKCNQ1/hKCNE1 (IKs); 30 μM): 68±15% and 68 ± 15 (4) %
- number of targets with greater than 50% inhibition (off-targets (Panlabs); over 100 Panlab assays): over 20
- number of targets with inhibition of greater than or equal to 75% (off-targets (Panlabs); over 100 Panlab assays): 12
- GI50 (SKNO-1): < 1 nM
- GI50 (MOLM-14): 3 nM
- GI50 (MV4; 11): 1 nM
SMILES: C[C@]12CC=C3C=C4CC[C@@H](N5CCC5)C[C@]45CCC3(O5)[C@@H]1CC[C@@H]2c1ccc2ccncc2c1 [Compound F]
- Fold increase in leukemia burden 15 days after 1st dose ([3]; 1 mpk PO QDx15, NSG mice): 12.3 fold
- Efficacy Rank Day 15 ([3]; each compound at its own dose/schedule, data from 3 separate studies): 6
- INa at 3 Hz % Block Mean ± SEM (n) (hNav1.5 (INa); 3.3 μM, pulsing rate 3 Hz): 30 ± 5 (4) %
- INa at 3 Hz % Block Mean ± SEM (n) (hNav1.5 (INa); 10 μM, pulsing rate 3 Hz): 60 ± 3 (4) %
- inhibition at 30 µM (hNav1.5 (INa); 30 μM, pulsing rate 0.2 Hz): 86 ± 2%
- INa at 3 Hz % Block Mean ± SEM (n) (hNav1.5 (INa); 30 μM, pulsing rate 3 Hz): 98±1% and 98 ± 1 (4) %
- IC50 (hNav1.5 (INa); pulsing rate 0.2 Hz): 14000 nM
- IC50 (hNav1.5 (INa); pulsing rate 3 Hz): 6500 nM
- hERG % Block Mean ± SEM (n) (hERG; 0.12 μM): 21 ± 2 (3) %
- hERG % Block Mean ± SEM (n) (hERG; 0.37 μM): 51 ± 1 (3) %
- hERG % Block Mean ± SEM (n) (hERG; 1.1 μM): 77 ± 0 (3) %
- hERG % Block Mean ± SEM (n) (hERG; 3.3 μM): 94 ± 0 (4) %
- hERG % Block Mean ± SEM (n) (hERG; 10 μM): 97 ± 0 (4) %
- hERG % Block Mean ± SEM (n) (hERG; 30 μM): 102 ± 1 (4) %
- IC50 (hERG; PatchXpress functional voltage clamp): 370 nM
- IC20 (hERG channel (IKr)): 110 nM
- body weight loss ([5]; IP 20 mg/kg, 2 of 3 mice): > 15%
- average body weight loss ([5]; oral 1 mg/kg): ~10%
- body weight loss ([5]; oral 3 mg/kg, 3 of 3 mice, requiring drug holiday): > 15%
- body weight loss ([5]; oral 10 mg/kg, not tolerated): > 20%
- number of targets with ≥75% inhibition (off-targets (Panlabs); Safety Panel = 28 binding assays (Eurofins Panlabs)): 12
